Source: patent publication US20120029187A1, “HALOALKYLSULFONANILIDE DERIVATIVE” (Nissan Chemical Industries, Ltd., priority 2009, published 2012)

What was measured:
Assay type in all cases: in vivo
barnyardgrass [1] = assay: Test Example 1: herbicidal effects in preemergence treatment under submerged conditions; details: dose 2.52 g/a
Method in brief: (§1)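 Weed seeds and 2.5-leaf rice seedlings shared each flooded cup of alluvial soil. Dosing, expressed as g per are, was by pouring water-diluted emulsifiable concentrate onto the surface on sowing day. Mortality was graded 0 to 5 after three weeks' growth.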

bulrush [2] = assay: as above; details: dose 2.52 g/a
Method in brief: as §1

ducksalad [3] = assay: as above; details: dose 2.52 g/a
Method in brief: as §1

barnyardgrass [4] = assay: Test Example 2: herbicidal effects during the vegetation period under submerged conditions; details: treatment during the vegetation period under submerged conditions; dose 2.52 g/a
Method in brief: (§2)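 Barnyardgrass, bulrush and ducksalad were co-sown in alluvial soil flooded to 4 cm and grown in a greenhouse at 25 to 30° C. At the 1- or 2-leaf stage, water-diluted emulsifiable concentrates went onto the water surface at set doses (g/a). Herbicidal effect was scored three weeks later on a graded scale.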

bulrush [5] = assay: as above; details: treatment during the vegetation period under submerged conditions; dose 2.52 g/a
Method in brief: as §2

ducksalad [6] = assay: as above; details: treatment during the vegetation period under submerged conditions; dose 2.52 g/a
Method in brief: as §2

Italian ryegrass [7] = assay: Test Example 3: herbicidal effects in soil treatment
Method in brief: (§3)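 Seeds were sown in sterilized diluvial soil and covered with about 1.5 cm of soil. Compounds, formulated as emulsifiable concentrates and diluted with water, were sprayed evenly over the soil surface at set doses in g/a. Herbicidal effect was scored on a rating scale three weeks later.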

barnyardgrass [8] = assay: as above
Method in brief: as §3

common chickweed [9] = assay: as above
Method in brief: as §3

common lambsquater [10] = assay: as above; details: dose 6.3 g/a
Method in brief: as §3

common ragweed [11] = assay: as above
Method in brief: as §3

giant foxtail [12] = assay: as above
Method in brief: as §3

large crabgrass [13] = assay: as above
Method in brief: as §3

posumbu knotweed [14] = assay: as above
Method in brief: as §3

redroot pigweed [15] = assay: as above
Method in brief: as §3

velvetleaf [16] = assay: as above
Method in brief: as §3

water foxtail [17] = assay: as above
Method in brief: as §3

wild oat [18] = assay: as above
Method in brief: as §3

Italian ryegrass [19] = assay: Test Example 4: herbicidal effect in foliage treatment; details: three weeks after application
Method in brief: (§4)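 Foliar spray, post-emergence: 14-day-old greenhouse plants (25–30° C, diluvial soil) treated with water-diluted EC at set g/a doses; visual herbicidal score at 3 wk post-application.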

barnyardgrass [20] = assay: as above; details: three weeks after application
Method in brief: as §4

beadstraw = assay: as above; details: three weeks after application
Method in brief: as §4

common chickweed [21] = assay: as above; details: three weeks after application
Method in brief: as §4

common lambsquater [22] = assay: as above; details: three weeks after application
Method in brief: as §4

common ragweed [23] = assay: as above; details: three weeks after application
Method in brief: as §4

giant foxtail [24] = assay: as above; details: three weeks after application
Method in brief: as §4

large crabgrass [25] = assay: as above; details: three weeks after application
Method in brief: as §4

posumbu knotweed [26] = assay: as above; details: three weeks after application
Method in brief: as §4

redroot pigweed [27] = assay: as above; details: three weeks after application
Method in brief: as §4

velvetleaf [28] = assay: as above; details: three weeks after application
Method in brief: as §4

water foxtail [29] = assay: as above; details: three weeks after application
Method in brief: as §4

wild oat [30] = assay: as above; details: three weeks after application
Method in brief: as §4

transplanted rice = assay: Test Example 1: preemergence treatment under submerged conditions, effect on crop; details: dose 2.52 g/a
Method in brief: as §1

CC1OCCN(Cc2ccccc2NS(=O)(=O)C(F)(F)F)C1=O (centres unmarked) [Compound I-4, 2-methyl-4-(2-trifluoromethanesulfonylaminobenzyl)-1,4-oxazinan-3-one]
A: barnyardgrass, herbicidal effect (evaluation scale 0-5) (barnyardgrass [1]): 5 (mortality of 90% or above (nearly complete death))
B: bulrush, herbicidal effect (evaluation scale 0-5) (bulrush [2]): 5 (mortality of 90% or above (nearly complete death))
C: ducksalad, herbicidal effect (evaluation scale 0-5) (ducksalad [3]): 5 (mortality of 90% or above (nearly complete death))
A: barnyardgrass, herbicidal effect (evaluation scale 0-5) (barnyardgrass [4]): 5 (mortality of 90% or above (nearly complete death))
B: bulrush, herbicidal effect (evaluation scale 0-5) (bulrush [5]): 5 (mortality of 90% or above (nearly complete death))
C: ducksalad, herbicidal effect (evaluation scale 0-5) (ducksalad [6]): 5 (mortality of 90% or above (nearly complete death))
H: Italian ryegrass, herbicidal effect (evaluation scale 0-5) (Italian ryegrass [7]; dose 6.3 g/a): 3 (mortality of at least 40% and less than 70%)
A: barnyardgrass, herbicidal effect (evaluation scale 0-5) (barnyardgrass [8]; dose 6.3 g/a): 4 (mortality of at least 70% and less than 90%)
N: common chickweed, herbicidal effect (evaluation scale 0-5) (common chickweed [9]; dose 6.3 g/a): 5 (mortality of 90% or above (nearly complete death))
L: common lambsquater, herbicidal effect (evaluation scale 0-5) (common lambsquater [10]): 5 (mortality of 90% or above (nearly complete death))
J: common ragweed, herbicidal effect (evaluation scale 0-5) (common ragweed [11]; dose 6.3 g/a): 5 (mortality of 90% or above (nearly complete death))
E: giant foxtail, herbicidal effect (evaluation scale 0-5) (giant foxtail [12]; dose 6.3 g/a): 3 (mortality of at least 40% and less than 70%)
D: large crabgrass, herbicidal effect (evaluation scale 0-5) (large crabgrass [13]; dose 6.3 g/a): 5 (mortality of 90% or above (nearly complete death))
M: posumbu knotweed, herbicidal effect (evaluation scale 0-5) (posumbu knotweed [14]; dose 6.3 g/a): 4 (mortality of at least 70% and less than 90%)
K: redroot pigweed, herbicidal effect (evaluation scale 0-5) (redroot pigweed [15]; dose 6.3 g/a): 4 (mortality of at least 70% and less than 90%)
I: velvetleaf, herbicidal effect (evaluation scale 0-5) (velvetleaf [16]; dose 6.3 g/a): 4 (mortality of at least 70% and less than 90%)
G: water foxtail, herbicidal effect (evaluation scale 0-5) (water foxtail [17]; dose 6.3 g/a): 5 (mortality of 90% or above (nearly complete death))
F: wild oat, herbicidal effect (evaluation scale 0-5) (wild oat [18]; dose 6.3 g/a): 0 (mortality of less than 5% (almost ineffective))
H: Italian ryegrass, herbicidal effect (Italian ryegrass [19]; dose 6.3 g/a): 2 (mortality of at least 20% and less than 40%)
A: barnyardgrass, herbicidal effect (barnyardgrass [20]; dose 6.3 g/a): 5 (mortality of 90% or above (nearly complete death))
O: beadstraw, herbicidal effect (beadstraw; dose 6.3 g/a): 4 (mortality of at least 70% and less than 90%)
N: common chickweed, herbicidal effect (common chickweed [21]; dose 6.3 g/a): 4 (mortality of at least 70% and less than 90%)
L: common lambsquater, herbicidal effect (common lambsquater [22]; dose 6.3 g/a): 4 (mortality of at least 70% and less than 90%)
J: common ragweed, herbicidal effect (common ragweed [23]; dose 6.3 g/a): 4 (mortality of at least 70% and less than 90%)
E: giant foxtail, herbicidal effect (giant foxtail [24]; dose 6.3 g/a): 4 (mortality of at least 70% and less than 90%)
D: large crabgrass, herbicidal effect (large crabgrass [25]; dose 6.3 g/a): 5 (mortality of 90% or above (nearly complete death))
M: posumbu knotweed, herbicidal effect (posumbu knotweed [26]; dose 6.3 g/a): 3 (mortality of at least 40% and less than 70%)
K: redroot pigweed, herbicidal effect (redroot pigweed [27]; dose 6.3 g/a): 3 (mortality of at least 40% and less than 70%)
I: velvetleaf, herbicidal effect (velvetleaf [28]; dose 6.3 g/a): 5 (mortality of 90% or above (nearly complete death))
G: water foxtail, herbicidal effect (water foxtail [29]; dose 6.3 g/a): 5 (mortality of 90% or above (nearly complete death))
F: wild oat, herbicidal effect (wild oat [30]; dose 6.3 g/a): 0 (mortality of less than 5% (almost ineffective))

CCCOC(=O)N(c1ccccc1CN1COC(C)(C)CC1=O)S(=O)(=O)C(F)(F)F [II-24]
A: barnyardgrass, herbicidal effect (evaluation scale 0-5) (barnyardgrass [1]): 5 (mortality of 90% or above (nearly complete death))
B: bulrush, herbicidal effect (evaluation scale 0-5) (bulrush [2]): 5 (mortality of 90% or above (nearly complete death))
C: ducksalad, herbicidal effect (evaluation scale 0-5) (ducksalad [3]): 5 (mortality of 90% or above (nearly complete death))
a: transplanted rice, effect on crop (evaluation scale 0-5) (transplanted rice): 0 (mortality of less than 5% (almost ineffective))
A: barnyardgrass, herbicidal effect (evaluation scale 0-5) (barnyardgrass [4]): 5 (mortality of 90% or above (nearly complete death))
B: bulrush, herbicidal effect (evaluation scale 0-5) (bulrush [5]): 5 (mortality of 90% or above (nearly complete death))
C: ducksalad, herbicidal effect (evaluation scale 0-5) (ducksalad [6]): 5 (mortality of 90% or above (nearly complete death))
H: Italian ryegrass, herbicidal effect (evaluation scale 0-5) (Italian ryegrass [7]; dose 3.2 g/a): 5 (mortality of 90% or above (nearly complete death))
A: barnyardgrass, herbicidal effect (evaluation scale 0-5) (barnyardgrass [8]; dose 3.2 g/a): 4 (mortality of at least 70% and less than 90%)
N: common chickweed, herbicidal effect (evaluation scale 0-5) (common chickweed [9]; dose 3.2 g/a): 3 (mortality of at least 40% and less than 70%)
J: common ragweed, herbicidal effect (evaluation scale 0-5) (common ragweed [11]; dose 3.2 g/a): 4 (mortality of at least 70% and less than 90%)
E: giant foxtail, herbicidal effect (evaluation scale 0-5) (giant foxtail [12]; dose 3.2 g/a): 3 (mortality of at least 40% and less than 70%)
D: large crabgrass, herbicidal effect (evaluation scale 0-5) (large crabgrass [13]; dose 3.2 g/a): 4 (mortality of at least 70% and less than 90%)
M: posumbu knotweed, herbicidal effect (evaluation scale 0-5) (posumbu knotweed [14]; dose 3.2 g/a): 4 (mortality of at least 70% and less than 90%)
K: redroot pigweed, herbicidal effect (evaluation scale 0-5) (redroot pigweed [15]; dose 3.2 g/a): 0 (mortality of less than 5% (almost ineffective))
I: velvetleaf, herbicidal effect (evaluation scale 0-5) (velvetleaf [16]; dose 3.2 g/a): 5 (mortality of 90% or above (nearly complete death))
G: water foxtail, herbicidal effect (evaluation scale 0-5) (water foxtail [17]; dose 3.2 g/a): 5 (mortality of 90% or above (nearly complete death))
F: wild oat, herbicidal effect (evaluation scale 0-5) (wild oat [18]; dose 3.2 g/a): 0 (mortality of less than 5% (almost ineffective))
H: Italian ryegrass, herbicidal effect (Italian ryegrass [19]; dose 3.2 g/a): 4 (mortality of at least 70% and less than 90%)
A: barnyardgrass, herbicidal effect (barnyardgrass [20]; dose 3.2 g/a): 5 (mortality of 90% or above (nearly complete death))
O: beadstraw, herbicidal effect (beadstraw; dose 3.2 g/a): 5 (mortality of 90% or above (nearly complete death))
N: common chickweed, herbicidal effect (common chickweed [21]; dose 3.2 g/a): 4 (mortality of at least 70% and less than 90%)
L: common lambsquater, herbicidal effect (common lambsquater [22]; dose 3.2 g/a): 0 (mortality of less than 5% (almost ineffective))
J: common ragweed, herbicidal effect (common ragweed [23]; dose 3.2 g/a): 3 (mortality of at least 40% and less than 70%)
E: giant foxtail, herbicidal effect (giant foxtail [24]; dose 3.2 g/a): 4 (mortality of at least 70% and less than 90%)
D: large crabgrass, herbicidal effect (large crabgrass [25]; dose 3.2 g/a): 4 (mortality of at least 70% and less than 90%)
M: posumbu knotweed, herbicidal effect (posumbu knotweed [26]; dose 3.2 g/a): 3 (mortality of at least 40% and less than 70%)
K: redroot pigweed, herbicidal effect (redroot pigweed [27]; dose 3.2 g/a): 0 (mortality of less than 5% (almost ineffective))
I: velvetleaf, herbicidal effect (velvetleaf [28]; dose 3.2 g/a): 4 (mortality of at least 70% and less than 90%)
G: water foxtail, herbicidal effect (water foxtail [29]; dose 3.2 g/a): 5 (mortality of 90% or above (nearly complete death))
F: wild oat, herbicidal effect (wild oat [30]; dose 3.2 g/a): 0 (mortality of less than 5% (almost ineffective))
